# According to ChEMBL document CHEMBL1201862, “PubChem BioAssay data set” (2004):
#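 Compound exposure: 48 hours, 5 concentrations, 96-well plates. The concentration for 50% growth inhibition is given as GI50.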 Calls of active or inactive are those of the source. Rule as the data show it: active = GI50 up to about 1.1 µM and inactive = higher.
# Tests used:
# Assay in all cases: DTP human tumour cell line panel, 48 h
# 786-0 = test system: 786-0
# A498 = test system: A498
# A549 = test system: A549
# ACHN = test system: ACHN
# BT-549 = test system: BT-549
# CCRF-CEM = test system: CCRF-CEM
# COLO 205 = test system: COLO 205
# DU-145 = test system: DU-145
# EKVX = test system: EKVX
# HCC 2998 = test system: HCC 2998
# HCT-116 = test system: HCT-116
# HCT-15 = test system: HCT-15
# HL-60 = test system: HL-60
# HOP-62 = test system: HOP-62
# HOP-92 = test system: HOP-92
# HT-29 = test system: HT-29
# Hs-578T = test system: Hs-578T
# IGROV-1 = test system: IGROV-1
# K562 = test system: K562
# KM12 = test system: KM12
# LOX IMVI = test system: LOX IMVI
# M14 = test system: M14
# MCF7 = test system: MCF7
# MDA-MB-231 = test system: MDA-MB-231
# MDA-MB-435 = test system: MDA-MB-435
# MDA-N = test system: MDA-N
# MOLT-4 = test system: MOLT-4
# Malme-3M = test system: Malme-3M
# NCI-H226 = test system: NCI-H226
# NCI-H23 = test system: NCI-H23
# NCI-H460 = test system: NCI-H460
# NCI-H522 = test system: NCI-H522
# NCI/ADR-RES = test system: NCI/ADR-RES
# OVCAR-3 = test system: OVCAR-3
# OVCAR-4 = test system: OVCAR-4
# OVCAR-5 = test system: OVCAR-5
# OVCAR-8 = test system: OVCAR-8
# PC-3 = test system: PC-3
# RPMI-8226 = test system: RPMI-8226
# RXF 393 = test system: RXF 393
# SF-268 = test system: SF-268
# SF-295 = test system: SF-295
# SF-539 = test system: SF-539
# SK-MEL-28 = test system: SK-MEL-28
# SK-MEL-5 = test system: SK-MEL-5
# SK-OV-3 = test system: SK-OV-3
# SN12C = test system: SN12C
# SNB-19 = test system: SNB-19
# SNB-75 = test system: SNB-75
# SR = test system: SR
# SW-620 = test system: SW-620
# T47D = test system: T47D
# TK-10 = test system: TK-10
# U-251 = test system: U-251
# UACC-257 = test system: UACC-257
# UACC-62 = test system: UACC-62
# UO-31 = test system: UO-31
smiles,measurement,setting,value
Cc1nc2ccccc2c(=O)n1NC(=O)c1ccc(CS)cc1,GI50,786-0,11.5 µM (inactive)
same,GI50,A498,11.2 µM (inactive)
same,GI50,A549,7.48 µM (inactive)
same,GI50,ACHN,10.9 µM (inactive)
same,GI50,BT-549,13.7 µM (inactive)
same,GI50,CCRF-CEM,0.82 µM (active)
same,GI50,COLO 205,15.2 µM (inactive)
same,GI50,DU-145,28.1 µM (inactive)
same,GI50,EKVX,4.76 µM (inactive)
same,GI50,HCC 2998,18.5 µM (inactive)
same,GI50,HCT-116,4.4 µM (inactive)
same,GI50,HCT-15,16.4 µM
same,GI50,HL-60,2.7 µM (inactive)
same,GI50,HOP-62,18.8 µM (inactive)
same,GI50,HOP-92,7.85 µM (inactive)
same,GI50,HT-29,10.8 µM (inactive)
same,GI50,Hs-578T,16.6 µM (inactive)
same,GI50,IGROV-1,8.59 µM (inactive)
same,GI50,K562,6.21 µM (inactive)
same,GI50,KM12,15.3 µM (inactive)
same,GI50,LOX IMVI,0.145 µM (active)
same,GI50,M14,12.2 µM (inactive)
same,GI50,MCF7,5.64 µM (inactive)
same,GI50,MDA-MB-231,13 µM (inactive)
same,GI50,MDA-MB-435,12.9 µM (inactive)
same,GI50,MDA-N,> 10 µM (inactive)
same,GI50,MOLT-4,1.02 µM (active)
same,GI50,Malme-3M,27.9 µM (inactive)
same,GI50,NCI-H226,2.84 µM (inactive)
same,GI50,NCI-H23,15.6 µM (inactive)
same,GI50,NCI-H460,19 µM (inactive)
same,GI50,NCI-H522,12.3 µM (inactive)
same,GI50,NCI/ADR-RES,28.6 µM (inactive)
same,GI50,OVCAR-3,11.8 µM (inactive)
same,GI50,OVCAR-4,15.1 µM (inactive)
same,GI50,OVCAR-5,34.5 µM (inactive)
same,GI50,OVCAR-8,20.8 µM (inactive)
same,GI50,PC-3,1.74 µM (inactive)
same,GI50,RPMI-8226,11.1 µM (inactive)
same,GI50,RXF 393,> 10 µM (inactive)
same,GI50,SF-268,4.06 µM (inactive)
same,GI50,SF-295,25.8 µM (inactive)
same,GI50,SF-539,12.9 µM (inactive)
same,GI50,SK-MEL-28,12.7 µM (inactive)
same,GI50,SK-MEL-5,3.92 µM (inactive)
same,GI50,SK-OV-3,17.8 µM (inactive)
same,GI50,SN12C,11.9 µM (inactive)
same,GI50,SNB-19,38.2 µM (inactive)
same,GI50,SNB-75,14.9 µM (inactive)
same,GI50,SR,2.97 µM (inactive)
same,GI50,SW-620,6 µM (inactive)
same,GI50,T47D,16.7 µM (inactive)
same,GI50,TK-10,> 10 µM (inactive)
same,GI50,U-251,3.94 µM (inactive)
same,GI50,UACC-257,20.4 µM (inactive)
same,GI50,UACC-62,6.58 µM (inactive)
same,GI50,UO-31,12.5 µM (inactive)
